Consider 3 molecules from publication PMC4169639 (BMC Biology, 2014).

In experiment [1] the target is T1, PCTP START domain (GSV-PCTP) (Homo sapiens, UniProt Q9UKL6).
T1 sequence (Q9UKL6 1-212 limits assumed): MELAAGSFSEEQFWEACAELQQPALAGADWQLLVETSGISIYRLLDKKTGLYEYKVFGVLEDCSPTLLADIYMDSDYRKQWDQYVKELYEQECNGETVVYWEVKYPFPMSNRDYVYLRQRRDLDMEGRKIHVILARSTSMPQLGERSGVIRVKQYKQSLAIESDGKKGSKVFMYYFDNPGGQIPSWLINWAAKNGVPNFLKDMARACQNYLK
Kind of experiment: IgG-bead immunoisolation from yeast lysate, LC-MS of bound metabolites. The following applies: endogenous yeast metabolite, enriched over GV control. The format is binding.

The target of experiment [2] is T2, StAR START domain (GSV-StAR) (Mus musculus, UniProt P51557).
T2 sequence (P51557 66-274 limits assumed): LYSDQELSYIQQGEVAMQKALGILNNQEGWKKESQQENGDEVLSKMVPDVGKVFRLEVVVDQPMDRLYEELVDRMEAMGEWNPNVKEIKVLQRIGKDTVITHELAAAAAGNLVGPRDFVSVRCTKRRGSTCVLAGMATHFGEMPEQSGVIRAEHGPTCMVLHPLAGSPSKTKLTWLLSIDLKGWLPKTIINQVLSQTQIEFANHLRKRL
The description is as above. The experiment is classed as binding. The following applies: endogenous yeast metabolite, enriched over GV control.

Each structure is given as a SMILES string.

For the molecule `CC(C)=CCC[C@@H](C)[C@H]1CC[C@@]2(C)C3=C(CC[C@]12C)[C@@]1(C)CC[C@H](O)C(C)(C)[C@@H]1CC3` [lanosterol], the “IgG-bead immunoisolation from yeast lysate, LC-MS of bound metabolites” value (from here on “IgG-bead immunoisolation … of bound metabolites”) is “several metabolites that were shared with StAR (e.g. lanosterol, squalene” in experiment [1]; “lanosterol and squalene, were also significantly enriched for the START domain from StAR” in experiment [2]. Turning to `CCCCC/C=C\C/C=C\CCCCCCCC(N)=O` [linoleamide], in experiment [1], the “IgG-bead immunoisolation … of bound metabolites” value is “lipids including sphinganine, sphingosine, behenic acid and linoleamide”. `CC(C)=CCC/C(C)=C/CC/C(C)=C/CC/C=C(\C)CC/C=C(\C)CCC=C(C)C` [squalene]: the “IgG-bead immunoisolation … of bound metabolites” value in experiment [1] was “several metabolites that were shared with StAR (e.g. lanosterol, squalene”; in experiment [2], “lanosterol and squalene, were also significantly enriched for the START domain from StAR”.
